Results: US20250002450A1, “CATIONIC STEROID COMPOUNDS, METHOD OF OBTAINING THEREOF, FORMULATIONS COMPRISING THEREOF AND THEIR USES” (UNIVERSIDADE DO PORTO, priority 2021, published 2025)
Values after ≈ are worked out from the molar mass of the structure shown.

How the values were obtained:
[1] = system: E. coli 2252 (COL-resistant); assay: Antibacterial MIC/MBC (broth microdilution); type: cell-based, Escherichia coli; settings: Escherichia coli, E. coli 2252 (COL-resistant)
Procedure, shortened: (§1)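 Each strain is exposed to two-fold compound dilutions (0.062-64 μg/mL) in MHB2 at roughly 5×10^5 CFU/mL for 20 h at 37 degrees C. Clear wells are subcultured overnight on MH agar for the 99.9%-kill MBC.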

[2] = system: E. coli SA/2 (ESBL); assay: Antibacterial MIC/MBC (broth microdilution); type: cell-based, Escherichia coli; settings: Escherichia coli
Procedure, shortened: as §1

[3] = system: Acinetobacter baumannii ATCC 19606; assay: Antibacterial MIC/MBC (broth microdilution); type: cell-based
Procedure, shortened: as §1

[4] = system: Campylobacter jejuni ATCC 33560; assay: Antibacterial MIC/MBC (broth microdilution); type: cell-based; settings: ATCC33560, Campylobacter jejuni ATCC 33560
[5] = system: Escherichia coli ATCC 25922; assay: Antibacterial MIC/MBC (broth microdilution); type: cell-based; settings: ATCC25922, Escherichia coli ATCC 25922
Procedure, shortened: as §1

[6] = system: Pseudomonas aeruginosa ATCC 27853; assay: Antibacterial MIC/MBC (broth microdilution); type: cell-based; settings: ATCC27853, Pseudomonas aeruginosa ATCC 27853
Procedure, shortened: as §1

[7] = system: C. jejuni 4432; assay: Antibacterial MIC/MBC (broth microdilution); type: cell-based, Campylobacter jejuni; settings: Campylobacter jejuni
[8] = system: C. jejuni 4433; assay: Antibacterial MIC/MBC (broth microdilution); type: cell-based, Campylobacter jejuni; settings: Campylobacter jejuni
[9] = system: C. jejuni 4448; assay: Antibacterial MIC/MBC (broth microdilution); type: cell-based, Campylobacter jejuni; settings: Campylobacter jejuni
[10] = system: C. jejuni P5/4; assay: Antibacterial MIC/MBC (broth microdilution); type: cell-based, Campylobacter jejuni; settings: Campylobacter jejuni
[11] = system: Tenacibaculum maritimum ATCC 43397; assay: Antibacterial disk diffusion; type: cell-based; settings: Tenacibaculum maritimum ATCC 43397, footnote *
[12] = system: S. aureus 66/1 (MRSA); assay: Antibacterial MIC/MBC (broth microdilution); type: cell-based, Staphylococcus aureus; settings: Staphylococcus aureus
Procedure, shortened: as §1

[13] = system: E. faecalis B3/101 (VRE); assay: Antibacterial MIC/MBC (broth microdilution); type: cell-based, Enterococcus faecalis
Procedure, shortened: as §1

[14] = system: Enterococcuss faecalis ATCC 29212; assay: Antibacterial MIC/MBC (broth microdilution); type: cell-based, Enterococcus faecalis
Procedure, shortened: as §1

[15] = system: Streptococcuss pyogenes ATCC 19615; assay: Antibacterial MIC/MBC (broth microdilution); type: cell-based, Streptococcus pyogenes; settings: Streptococcus pyogenes, ATCC19615, Streptococcuss pyogenes ATCC 19615
Procedure, shortened: as §1

C[C@H](CCC(=O)N1CCN(C(=O)CC[C@H](C)[C@@H]2CC[C@@H]3[C@H]4CC[C@H]5C[C@@H](O)CC[C@@]5(C)[C@@H]4C[C@@H](O)[C@]32C)CC1)[C@H]1CC[C@H]2[C@@H]3CC[C@@H]4C[C@H](O)CC[C@]4(C)[C@H]3C[C@H](O)[C@]12C [Compound 4, (R)-4-((3R,5R,8R,9S,10S,12S,13R,14S,17R)-3,12-dihydroxy-10,13-dimethylhexadecahydro-1H-cyclopenta[a]phenanthren-17-yl)-1-(4-((S)-4-((3S,5S,8S,9R,10R,12R,13S,14R,17S)-3,12-dihydroxy-10,13-dimethylhexadecahydro-1H-cyclopenta[a]phenanthren-17-yl)pentanoyl)piperazin-1-yl) pentan-1-one]
MBC ([1]; read-out: MBC): > 64 µg/mL | MIC ([1]; read-out: MIC): > 64 µg/mL | MBC [2]: > 64 µg/mL | MIC [2]: > 64 µg/mL | antibacterial activity (in words) ([3]; A. baumannii ATCC 19606): displayed an inhibitory effect | MBC ([3]; ATCC19606, Acinetobacter baumannii ATCC 19606, read-out: MBC): 64 µg/mL (≈ 76.6 µM) | MIC ([3]; ATCC19606, Acinetobacter baumannii ATCC 19606, read-out: MIC): 64 µg/mL (≈ 76.6 µM) | MBC ([4]; read-out: MBC): > 64 µg/mL | MIC ([4]; read-out: MIC): > 64 µg/mL | MBC ([5]; read-out: MBC): > 64 µg/mL | MIC ([5]; read-out: MIC): > 64 µg/mL | MBC ([6]; read-out: MBC): > 64 µg/mL | MIC ([6]; read-out: MIC): > 64 µg/mL | MBC ([7]; read-out: MBC): > 64 µg/mL | MIC ([7]; read-out: MIC): > 64 µg/mL | MBC ([8]; read-out: MBC): > 64 µg/mL | MIC ([8]; read-out: MIC): > 64 µg/mL | MBC ([9]; read-out: MBC): > 64 µg/mL | MIC ([9]; read-out: MIC): > 64 µg/mL | MBC ([10]; read-out: MBC): > 64 µg/mL | MIC ([10]; read-out: MIC): > 64 µg/mL | Inhibition zone diameter (disk diffusion) [11]: 10 mm | MBC ([12]; read-out: MBC): > 64 µg/mL | MIC ([12]; read-out: MIC): 64 µg/mL (≈ 76.6 µM) | antibacterial activity (in words) ([13]; E. faecalis B3/101): displayed the same effect | MBC ([13]; Enterococcus faecalis, E. faecalis B3/101 (VRE), read-out: MBC): > 64 µg/mL | MIC ([13]; Enterococcus faecalis, E. faecalis B3/101 (VRE), read-out: MIC): 64 µg/mL (≈ 76.6 µM) | antibacterial activity (in words) ([14]; E. faecalis ATCC 29212): exhibited antimicrobial activity | MBC ([14]; Enterococcus faecalis, ATCC29212, Enterococcuss faecalis ATCC 29212, read-out: MBC): 64 µg/mL (≈ 76.6 µM) | MIC ([14]; Enterococcus faecalis, ATCC29212, Enterococcuss faecalis ATCC 29212, read-out: MIC): 64 µg/mL (≈ 76.6 µM) | MBC ([15]; read-out: MBC): > 64 µg/mL | MIC ([15]; read-out: MIC): > 64 µg/mL
